In this assay the test system is BDF1 mice, B16 melanoma ip, median survival T/C. Put plainly: NCI In Vivo Anticancer Drug Screen. Data for tumor model B16 Melanoma (intraperitoneal) in B6D2F1 (BDF1) mice. To be noted: endpoint: median survival time, higher = longer survival. A digest of the protocol: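 Survival or tumor size is measured after treatment of tumor-bearing mice and normalised to the vehicle-treated control group.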

Setting [1] is: dose: 25.0 mg/kg/injection, schedule: Q04DX003 (ip), vehicle: saline.
[2] abbreviates: dose: 50.0 mg/kg/injection, schedule: Q04DX003 (ip), vehicle: saline.
Where [3] appears, read: dose: 50.0 mg/kg/injection, schedule: Q04DX003 (ip), vehicle: saline with Tween-80.
Setting [4] is: dose: 100.0 mg/kg/injection, schedule: Q04DX003 (ip), vehicle: saline with Tween-80.
Where [5] appears, read: dose: 100.0 mg/kg/injection, schedule: Q01DX009 (ip), vehicle: Klucel (hydroxypropylcellulose) (HPC).
Where [6] appears, read: dose: 200.0 mg/kg/injection, schedule: Q01DX009 (ip), vehicle: Klucel (hydroxypropylcellulose) (HPC).
Where [7] appears, read: dose: 400.0 mg/kg/injection, schedule: Q01DX009 (ip), vehicle: Klucel (hydroxypropylcellulose) (HPC).
Where [8] appears, read: dose: 6.25 mg/kg/injection, schedule: Q04DX003 (ip), vehicle: Klucel (hydroxypropylcellulose) (HPC).
Where [9] appears, read: dose: 12.5 mg/kg/injection, schedule: Q04DX003 (ip), vehicle: Klucel (hydroxypropylcellulose) (HPC).
Where [10] appears, read: dose: 100.0 mg/kg/injection, schedule: Q04DX003 (ip), vehicle: Klucel (hydroxypropylcellulose) (HPC).
Setting [11] is: dose: 25.0 mg/kg/injection, schedule: Q01DX009 (ip), vehicle: Klucel (hydroxypropylcellulose) (HPC).
[12] abbreviates: dose: 50.0 mg/kg/injection, schedule: Q01DX009 (ip), vehicle: Klucel (hydroxypropylcellulose) (HPC).
Setting [13] is: dose: 50.0 mg/kg/injection, schedule: Q01DX009 (ip), vehicle: saline.
Where [14] appears, read: dose: 100.0 mg/kg/injection, schedule: Q01DX009 (ip), vehicle: saline.
[15] abbreviates: dose: 200.0 mg/kg/injection, schedule: Q01DX009 (ip), vehicle: saline.

“And” between values parts separate entries of the source, which are not always exact repeats. Equal values may be shown once. Inconclusive results and toxic doses are left out.

In the case of `Cc1cc(NC(=O)NCc2ccc(N3C(N)=NC(N)=NC3(C)C)cc2)ccc1S(=O)(=O)F`, the T/C under setting [1] is 97 % of control; the T/C under setting [2] is 109 % of control; the T/C (dose: 400.0 mg/kg/injection, schedule: Q04DX003 (ip), vehicle: saline) was 122 % of control.
Consider `Nc1ccc(OCc2ccccc2)cc1`, for which the T/C (dose: 25.0 mg/kg/injection, schedule: Q01DX009 (ip), vehicle: saline with Tween-80) is 109 % of control.
In the case of `CC(C)=C(C=O)CCC(C)C`, the T/C is, setting by setting: (dose: 25.0 mg/kg/injection, schedule: Q04DX003 (ip), vehicle: saline with Tween-80) 100 % of control; under setting [3], 95 % of control; under setting [4], 97 % of control and 100 % of control.
On to `COc1cccc(C(=O)C(CCC#N)c2ccccc2)c1` (stereo unspecified), for which the T/C is 103 % of control under setting [5], 96 % of control under setting [6] and 103 % of control under setting [7].
Turning to `CC(N)CCc1ccccc1` (stereo unspecified), the T/C was 100 % of control (dose: 12.5 mg/kg/injection, schedule: Q04DX003 (ip), vehicle: saline); 108 % of control under setting [1]; 111 % of control under setting [2].
On to `COC(=O)C1C2CC3c4[nH]c5cc(OC)ccc5c4CCN3CC2CC(OC2CCCCO2)C1OC` (stereo unspecified), for which the T/C is, setting by setting: (dose: 0.19 mg/kg/injection, schedule: Q01DX009 (ip), vehicle: Klucel (hydroxypropylcellulose) (HPC)) 112 % of control; (dose: 0.39 mg/kg/injection, schedule: Q01DX009 (ip), vehicle: Klucel (hydroxypropylcellulose) (HPC)) 104 % of control; (dose: 0.78 mg/kg/injection, schedule: Q01DX009 (ip), vehicle: Klucel (hydroxypropylcellulose) (HPC)) 103 % of control; (dose: 0.78 mg/kg/injection, schedule: Q04DX003 (ip), vehicle: Klucel (hydroxypropylcellulose) (HPC)) 91 % of control; (dose: 1.56 mg/kg/injection, schedule: Q01DX009 (ip), vehicle: Klucel (hydroxypropylcellulose) (HPC)) 101 % of control; (dose: 1.56 mg/kg/injection, schedule: Q04DX003 (ip), vehicle: Klucel (hydroxypropylcellulose) (HPC)) 90 % of control. Further, the T/C reads like this: (dose: 3.12 mg/kg/injection, schedule: Q01DX009 (ip), vehicle: Klucel (hydroxypropylcellulose) (HPC)) 111 % of control; (dose: 3.12 mg/kg/injection, schedule: Q04DX003 (ip), vehicle: Klucel (hydroxypropylcellulose) (HPC)) 96 % of control and 122 % of control; under setting [8], 98 % of control; under setting [9], 95 % of control and 111 % of control; (dose: 25.0 mg/kg/injection, schedule: Q04DX003 (ip), vehicle: Klucel (hydroxypropylcellulose) (HPC)) 113 % of control; (dose: 50.0 mg/kg/injection, schedule: Q04DX003 (ip), vehicle: Klucel (hydroxypropylcellulose) (HPC)) 111 % of control. In addition, the T/C under setting [10] was 100 % of control.
For `C=C(CCCCC)C(=O)/C=C/c1ccc(Cl)cc1`, the T/C reads like this: (dose: 75.0 mg/kg/injection, schedule: Q04DX003 (ip), vehicle: Klucel (hydroxypropylcellulose) (HPC)) 94 % of control; (dose: 150.0 mg/kg/injection, schedule: Q04DX003 (ip), vehicle: Klucel (hydroxypropylcellulose) (HPC)) 94 % of control.
As for `CCC[CH2][Sn]1([CH2]CCC)[S]CC[N]1S(=O)(=O)c1ccc(C)cc1`, the T/C runs as follows: (dose: 6.0 mg/kg/injection, schedule: Q01DX009 (ip), vehicle: saline with Tween-80) 95 % of control; (dose: 12.5 mg/kg/injection, schedule: Q01DX009 (ip), vehicle: saline with Tween-80) 108 % of control.
With `Cc1ccc(NC(=O)NC(C)C)c(C)c1`, the T/C (dose: 6.25 mg/kg/injection, schedule: Q01DX009 (ip), vehicle: Klucel (hydroxypropylcellulose) (HPC)) is 101 % of control; the T/C (dose: 12.5 mg/kg/injection, schedule: Q01DX009 (ip), vehicle: Klucel (hydroxypropylcellulose) (HPC)) was 95 % of control; the T/C under setting [11] is 94 % of control.
In the case of `CNC(Cc1ccccc1)c1ccccc1` (stereo unspecified), the T/C reads like this: under setting [11], 105 % of control; under setting [12], 105 % of control; under setting [5], 113 % of control.
Turning to `CCCCCCCCCCCC(=O)[O][Sn]([CH2]c1ccccc1)([CH2]c1ccccc1)[CH2]c1ccccc1`, the T/C was 107 % of control (dose: 1.25 mg/kg/injection, schedule: Q04DX003 (ip), vehicle: other); 105 % of control (dose: 2.5 mg/kg/injection, schedule: Q04DX003 (ip), vehicle: other); 95 % of control (dose: 5.0 mg/kg/injection, schedule: Q04DX003 (ip), vehicle: other).
Regarding `Cc1ccc(N=CN(C)Sc2ccc(C(C)(C)C)cc2)c(C)c1`, the T/C reads like this: under setting [11], 100 % of control; under setting [12], 98 % of control; under setting [5], 95 % of control; under setting [6], 94 % of control.
On to `C=CCNC(=O)NCC=C`, for which the T/C reads like this: (dose: 25.0 mg/kg/injection, schedule: Q01DX009 (ip), vehicle: saline) 114 % of control; under setting [13], 109 % of control; under setting [14], 95 % of control; under setting [15], 100 % of control.
For `COc1ccc(C2CCc3cc4c(cc3/C2=N/OC(C)=O)OCO4)cc1OC` (stereo unspecified), the T/C is, setting by setting: under setting [5], 109 % of control; under setting [6], 110 % of control; under setting [7], 105 % of control.
For the molecule `CCCCNc1ccc(C(=O)O)cc1`, the T/C by setting is: (dose: 100.0 mg/kg/injection, schedule: Q04DX003 (ip), vehicle: gum acacia) 97 % of control; (dose: 200.0 mg/kg/injection, schedule: Q04DX003 (ip), vehicle: gum acacia) 97 % of control; (dose: 400.0 mg/kg/injection, schedule: Q04DX003 (ip), vehicle: gum acacia) 86 % of control.
With `O=C(NO)c1ccccc1`, the T/C by setting is: (dose: 12.5 mg/kg/injection, schedule: Q01DX009 (ip), vehicle: suspension in saline) 94 % of control; (dose: 25.0 mg/kg/injection, schedule: Q01DX009 (ip), vehicle: suspension in saline) 95 % of control; under setting [13], 97 % of control; (dose: 50.0 mg/kg/injection, schedule: Q01DX009 (ip), vehicle: suspension in saline) 92 % of control; under setting [3], 107 % of control; under setting [14], 97 % of control. In addition, the T/C is 92 % of control (dose: 100.0 mg/kg/injection, schedule: Q01DX009 (ip), vehicle: suspension in saline); 111 % of control under setting [4]; 102 % of control (dose: 178.0 mg/kg/injection, schedule: Q04DX003 (ip), vehicle: saline with Tween-80); 107 % of control under setting [15]; 108 % of control (dose: 200.0 mg/kg/injection, schedule: Q04DX003 (ip), vehicle: saline with Tween-80); 100 % of control (dose: 400.0 mg/kg/injection, schedule: Q04DX003 (ip), vehicle: saline with Tween-80). Further, the T/C (dose: 600.0 mg/kg/injection, schedule: Q04DX003 (ip), vehicle: saline with Tween-80) was 100 % of control.
`O=[N+]([O-])O.[NH-]C1CCCCC1[NH-].[NH-]C1CCCCC1[NH-].[OH-].[OH-].[Pt+4].[Pt+4]` (stereo unspecified): the T/C (dose: 0.25 mg/kg/injection, schedule: Q01DX009 (ip), vehicle: water) is 110 % of control and 111 % of control; the T/C (dose: 0.5 mg/kg/injection, schedule: Q01DX009 (ip), vehicle: water) is 120 % of control and 124 % of control.
In the case of `NC(=NCc1ccccc1)c1ccc(N=C(N)c2ccc(C(N)=Nc3ccc(C(N)=NCc4ccccc4)cc3)cc2)cc1`, the T/C runs as follows: (dose: 2.5 mg/kg/injection, schedule: Q01DX009 (ip), vehicle: saline) 97 % of control; (dose: 5.0 mg/kg/injection, schedule: Q01DX009 (ip), vehicle: saline) 96 % of control; (dose: 10.0 mg/kg/injection, schedule: Q01DX009 (ip), vehicle: saline) 92 % of control; (dose: 20.0 mg/kg/injection, schedule: Q01DX009 (ip), vehicle: saline) 96 % of control.
Consider `CC(C)C1(C(=O)NNC(=O)CCCc2ccc(N(CCCl)CCCl)cc2)OC2(O)CCCCCN2C1=O` (stereo unspecified), for which the T/C runs as follows: under setting [8], 105 % of control; (dose: 12.5 mg/kg/injection, schedule: Q01DX009 (ip), vehicle: DMSO) 114 % of control; under setting [9], 118 % of control; under setting [10], 167 % of control.

For the origin of these results see PubChem BioAssay AID192 (DTP/NCI, 2004).
